According to ChEMBL document CHEMBL1201862, “PubChem BioAssay data set” (2004):
Active and inactive are the calls of the source.

Tests used:
[1] = Luminescent dose response cell-based high throughput screening assay for inhibitors of the Janus kinase 2 mutant JAK2V617F. [Related pubchem assays: 1446 (Primary screen.), 1521 (Confirmation assay.), 1486 (Counter screen.)]; format: functional
[2] = HEp-2 cell cytotoxicity, dose response, cytotoxicity control for RSV inhibitor project, HTS (AID 2410); format: functional; details: human respiratory syncytial virus
[3] = microbe, parasite or virus in culture; format: functional; details: Mycobacterium tuberculosis
Protein RecA = target: T1, Protein RecA (Mycobacterium tuberculosis, UniProt P9WHJ3); experiment: Fluorescence Cell-Free Homogeneous Dose Retest to Identify Inhibitors of RecA-Intein Splicing Activity. [Related pubchem assays (depositor defined):AID2097, AID2223, AID489010, AID492950]; format: functional
T1 sequence (P9WHJ3 whole entry): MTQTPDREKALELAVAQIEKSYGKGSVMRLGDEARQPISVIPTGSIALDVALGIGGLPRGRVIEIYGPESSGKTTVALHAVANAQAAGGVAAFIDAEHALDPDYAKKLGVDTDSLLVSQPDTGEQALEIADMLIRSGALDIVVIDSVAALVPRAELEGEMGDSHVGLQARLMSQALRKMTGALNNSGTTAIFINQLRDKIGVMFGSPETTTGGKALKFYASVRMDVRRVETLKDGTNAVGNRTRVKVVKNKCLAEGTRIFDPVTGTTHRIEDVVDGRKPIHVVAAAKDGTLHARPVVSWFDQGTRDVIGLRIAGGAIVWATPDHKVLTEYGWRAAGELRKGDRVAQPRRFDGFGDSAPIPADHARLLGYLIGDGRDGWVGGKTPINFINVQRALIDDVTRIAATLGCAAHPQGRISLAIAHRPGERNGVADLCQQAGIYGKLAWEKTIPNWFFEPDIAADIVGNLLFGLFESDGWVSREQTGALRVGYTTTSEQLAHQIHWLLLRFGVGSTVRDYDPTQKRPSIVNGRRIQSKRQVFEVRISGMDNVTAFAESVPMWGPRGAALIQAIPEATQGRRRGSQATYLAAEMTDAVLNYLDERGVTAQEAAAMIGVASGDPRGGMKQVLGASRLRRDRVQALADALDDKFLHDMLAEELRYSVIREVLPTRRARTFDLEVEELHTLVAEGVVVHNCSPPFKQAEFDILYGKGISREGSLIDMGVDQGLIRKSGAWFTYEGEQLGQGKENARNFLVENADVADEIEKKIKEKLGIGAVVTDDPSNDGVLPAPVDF

[4] = target: T2, Microphthalmia-associated transcription factor (Homo sapiens, UniProt O75030); experiment: TRPM1 promoter luciferase signal decrease, dose response, MITF inhibitor project, cell-based, SK-MEL-5, cherry-picked, set 3 (AID 493073); format: functional
T2 sequence (O75030 whole entry): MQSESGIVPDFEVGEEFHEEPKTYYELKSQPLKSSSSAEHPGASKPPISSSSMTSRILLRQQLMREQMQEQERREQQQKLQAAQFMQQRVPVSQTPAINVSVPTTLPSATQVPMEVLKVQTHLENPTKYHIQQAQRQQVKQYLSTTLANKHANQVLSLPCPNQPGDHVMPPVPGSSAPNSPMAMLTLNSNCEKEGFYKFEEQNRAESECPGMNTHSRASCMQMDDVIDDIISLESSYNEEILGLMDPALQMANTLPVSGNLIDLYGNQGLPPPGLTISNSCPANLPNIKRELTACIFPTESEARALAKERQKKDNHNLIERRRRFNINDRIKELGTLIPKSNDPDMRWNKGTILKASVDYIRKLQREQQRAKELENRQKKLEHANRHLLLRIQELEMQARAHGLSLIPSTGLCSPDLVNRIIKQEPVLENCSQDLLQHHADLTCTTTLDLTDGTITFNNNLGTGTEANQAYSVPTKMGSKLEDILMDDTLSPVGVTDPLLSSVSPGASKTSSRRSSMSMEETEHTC

[5] = target: T3, Replicative DNA helicase DnaB (Mycobacterium tuberculosis, UniProt P9WMR3); experiment: DnaB intein splicing inhibitors, dose response, biochemical, cell-free fluorescence (AID 449749); format: functional
T3 sequence (P9WMR3 whole entry): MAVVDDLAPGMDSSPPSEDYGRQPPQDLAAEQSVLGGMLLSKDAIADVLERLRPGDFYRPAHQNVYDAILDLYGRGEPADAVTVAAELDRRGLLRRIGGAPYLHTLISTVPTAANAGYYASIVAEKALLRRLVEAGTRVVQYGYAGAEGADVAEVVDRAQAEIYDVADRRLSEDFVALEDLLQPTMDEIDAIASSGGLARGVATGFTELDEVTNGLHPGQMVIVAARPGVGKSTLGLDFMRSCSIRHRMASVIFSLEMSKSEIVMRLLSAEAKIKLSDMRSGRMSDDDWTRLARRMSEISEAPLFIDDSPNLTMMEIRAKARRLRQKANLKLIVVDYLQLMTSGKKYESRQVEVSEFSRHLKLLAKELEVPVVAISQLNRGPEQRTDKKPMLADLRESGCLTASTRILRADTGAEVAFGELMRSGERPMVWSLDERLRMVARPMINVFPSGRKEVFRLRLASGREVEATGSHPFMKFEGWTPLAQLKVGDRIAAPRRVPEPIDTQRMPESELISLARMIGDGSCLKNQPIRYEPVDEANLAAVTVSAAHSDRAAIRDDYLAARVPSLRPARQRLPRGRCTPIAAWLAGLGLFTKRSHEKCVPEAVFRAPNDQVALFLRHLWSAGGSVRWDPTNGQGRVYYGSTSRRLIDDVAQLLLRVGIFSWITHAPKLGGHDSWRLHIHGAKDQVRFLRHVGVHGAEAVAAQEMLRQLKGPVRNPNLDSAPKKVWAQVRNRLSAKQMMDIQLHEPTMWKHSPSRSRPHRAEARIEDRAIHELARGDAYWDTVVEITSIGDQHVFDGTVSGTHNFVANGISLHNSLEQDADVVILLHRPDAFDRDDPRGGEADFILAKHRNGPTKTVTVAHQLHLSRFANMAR

[6] = target: E3 ubiquitin-protein ligase Mdm2 (Homo sapiens, UniProt Q00987); experiment: enhancers of MDM2-luciferase reporter signal, concentration-effect titration, project on inhibitors of MDM2 ubiquitin ligase, cellular assay, luminescent readout, 384-well plate format (AID 1394); format: functional;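 note: MDM2 E3 inhibitors raise luminescence so EC50 is for signal enhancement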
Chain of E3 ubiquitin-protein ligase Mdm2 (Q00987 whole entry): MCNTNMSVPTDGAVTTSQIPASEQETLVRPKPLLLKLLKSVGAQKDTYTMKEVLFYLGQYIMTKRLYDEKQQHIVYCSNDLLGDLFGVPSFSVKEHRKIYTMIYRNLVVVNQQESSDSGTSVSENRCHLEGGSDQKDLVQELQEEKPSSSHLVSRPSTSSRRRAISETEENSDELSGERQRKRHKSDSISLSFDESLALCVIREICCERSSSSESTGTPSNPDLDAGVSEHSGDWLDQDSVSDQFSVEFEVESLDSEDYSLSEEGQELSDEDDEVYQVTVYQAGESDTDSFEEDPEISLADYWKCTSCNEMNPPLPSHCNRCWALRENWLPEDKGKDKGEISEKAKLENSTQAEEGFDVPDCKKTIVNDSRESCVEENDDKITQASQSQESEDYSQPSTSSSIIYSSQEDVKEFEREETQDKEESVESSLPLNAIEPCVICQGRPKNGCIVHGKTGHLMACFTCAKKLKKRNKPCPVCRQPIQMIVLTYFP

[7] = target: T4, Corticotropin-releasing factor receptor 2/Corticotropin-releasing factor-binding protein (Homo sapiens, UniProt P24387+Q13324); experiment: activators of CRF receptor 2 with binding protein – uHTS hits, confirmation (AID 602473); format: functional; details: read-out: EC50_Mean
T4 sequence (Q13324 whole entry): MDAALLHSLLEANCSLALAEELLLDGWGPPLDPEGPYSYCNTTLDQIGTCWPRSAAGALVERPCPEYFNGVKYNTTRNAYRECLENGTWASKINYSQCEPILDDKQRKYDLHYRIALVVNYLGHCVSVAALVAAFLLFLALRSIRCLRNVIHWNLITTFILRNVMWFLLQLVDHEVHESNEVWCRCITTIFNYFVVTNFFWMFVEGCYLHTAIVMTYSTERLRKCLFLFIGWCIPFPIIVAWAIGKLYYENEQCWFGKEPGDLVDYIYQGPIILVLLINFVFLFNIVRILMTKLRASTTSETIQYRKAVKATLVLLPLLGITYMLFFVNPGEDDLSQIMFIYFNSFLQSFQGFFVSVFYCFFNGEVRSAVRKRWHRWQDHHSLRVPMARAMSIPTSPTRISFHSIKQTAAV
T4 sequence (P24387 whole entry): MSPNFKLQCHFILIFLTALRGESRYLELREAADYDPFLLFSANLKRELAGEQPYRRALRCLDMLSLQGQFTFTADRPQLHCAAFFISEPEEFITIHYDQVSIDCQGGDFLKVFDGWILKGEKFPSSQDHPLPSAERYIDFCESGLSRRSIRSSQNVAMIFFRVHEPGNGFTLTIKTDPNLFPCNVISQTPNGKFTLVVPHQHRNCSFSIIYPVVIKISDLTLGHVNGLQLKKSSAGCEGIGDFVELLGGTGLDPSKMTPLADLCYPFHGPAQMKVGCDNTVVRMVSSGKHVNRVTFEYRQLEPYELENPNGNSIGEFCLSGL

[8] = target: Voltage-gated inwardly rectifying potassium channel KCNH2 (Homo sapiens, UniProt Q12809); experiment: hERG protection from proarrhythmic block, potency, dose response, cell-based, thallium flux (AID 2121); format: ADME
Chain of Voltage-gated inwardly rectifying potassium channel KCNH2 (Q12809 whole entry): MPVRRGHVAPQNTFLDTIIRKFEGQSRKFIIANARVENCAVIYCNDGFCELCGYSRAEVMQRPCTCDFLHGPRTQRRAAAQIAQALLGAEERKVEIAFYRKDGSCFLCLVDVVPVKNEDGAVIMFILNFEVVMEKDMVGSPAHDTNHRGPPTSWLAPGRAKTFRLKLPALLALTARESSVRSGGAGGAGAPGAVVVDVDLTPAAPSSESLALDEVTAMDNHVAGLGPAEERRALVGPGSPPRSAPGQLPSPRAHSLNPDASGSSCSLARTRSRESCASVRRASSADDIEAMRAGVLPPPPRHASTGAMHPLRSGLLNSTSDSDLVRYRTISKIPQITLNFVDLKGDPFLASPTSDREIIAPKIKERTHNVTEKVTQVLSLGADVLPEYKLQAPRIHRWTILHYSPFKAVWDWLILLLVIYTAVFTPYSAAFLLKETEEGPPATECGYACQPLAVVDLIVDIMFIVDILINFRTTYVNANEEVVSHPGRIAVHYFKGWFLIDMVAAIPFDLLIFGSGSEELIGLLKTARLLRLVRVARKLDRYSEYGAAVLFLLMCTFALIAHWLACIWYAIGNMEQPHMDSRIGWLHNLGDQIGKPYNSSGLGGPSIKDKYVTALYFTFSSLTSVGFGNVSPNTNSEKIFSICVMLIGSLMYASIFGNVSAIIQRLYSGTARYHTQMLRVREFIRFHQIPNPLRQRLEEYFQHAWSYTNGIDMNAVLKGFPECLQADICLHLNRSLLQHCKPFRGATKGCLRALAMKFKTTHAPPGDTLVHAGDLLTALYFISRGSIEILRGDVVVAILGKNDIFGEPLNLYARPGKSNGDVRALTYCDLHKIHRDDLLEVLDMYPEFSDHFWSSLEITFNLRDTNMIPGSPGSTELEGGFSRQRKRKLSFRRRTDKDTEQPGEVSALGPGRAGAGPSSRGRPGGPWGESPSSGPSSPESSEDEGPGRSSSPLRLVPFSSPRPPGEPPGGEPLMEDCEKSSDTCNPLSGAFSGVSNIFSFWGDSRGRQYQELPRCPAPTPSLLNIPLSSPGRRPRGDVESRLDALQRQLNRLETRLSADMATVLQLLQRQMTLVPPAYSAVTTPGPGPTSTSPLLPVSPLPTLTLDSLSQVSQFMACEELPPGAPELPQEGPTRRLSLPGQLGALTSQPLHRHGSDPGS

O=c1cnn([C@@H]2O[C@H](CO)[C@@H](O)[C@H]2O)c(=O)[nH]1 [6-AZAURIDINE]
IC50 (cells): 2.28 µM (active) | IC50 [1]: 2.32 µM (active) | CC50 [2]: 11.9 µM (active)

CC1CCCC(NC(=O)NC(=O)CCl)C1C (stereo unspecified)
CC50 [3]: 10.4 µM (active) | EC50 (Protein RecA): 6.19 µM (active) | IC50 [1]: 1.02 µM (active) | AC50 [4]: 12.4 µM (active) | AC50 [5]: 23.2 µM (active)

Cc1ccccc1Nc1nnc(SCC2CCCCO2)s1 (stereo unspecified)
EC50 [6]: 8.93 µM (not active)

CCOc1ccc2nc(/N=C/c3nc(-c4ccc(Br)cc4)oc3O)sc2c1
EC50 [7]: > 53 µM (inactive) | EC50 [8]: 0.16 µM (active)
